Reference: US10392347B2, “2,4-dihydroxy-nicotinamides as APJ agonists” (BRISTOL-MYERS SQUIBB COMPANY, priority 2015, dated 2019)

Target: T1, human APJ receptor (Homo sapiens, UniProt P35414)
T1 construct: expressed in transfected cells
T1 sequence (P35414 1-380): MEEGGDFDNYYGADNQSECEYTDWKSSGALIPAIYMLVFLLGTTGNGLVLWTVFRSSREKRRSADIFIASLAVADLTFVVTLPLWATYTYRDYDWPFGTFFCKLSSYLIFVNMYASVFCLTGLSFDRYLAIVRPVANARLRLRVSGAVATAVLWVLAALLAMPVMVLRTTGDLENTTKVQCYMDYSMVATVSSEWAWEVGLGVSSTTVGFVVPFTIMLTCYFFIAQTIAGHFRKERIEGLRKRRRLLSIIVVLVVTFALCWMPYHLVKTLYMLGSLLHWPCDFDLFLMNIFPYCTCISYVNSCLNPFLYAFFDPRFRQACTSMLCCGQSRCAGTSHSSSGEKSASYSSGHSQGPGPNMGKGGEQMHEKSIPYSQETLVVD
Assay: Intracellular cAMP accumulation assay (APJ hcAMP, HTRF)
Assay type: cell-based
Settings: Table 4; HEK293 cells stably expressing human APJ, forskolin-stimulated cAMP; read-out: Human cAMP EC50
Method in brief: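 Inhibition of forskolin (2 μM)-stimulated cAMP, with […], was measured after 30 min compound exposure at room temperature in stably transfected HEK293 cells. HTRF ratios were converted to cAMP via standard curve, and EC50 values came from variable-slope sigmoidal concentration-response fitting.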

Structure (SMILES) | EC50 [nM]
CCOCc1nc(O)c(C(=O)N2CCN(Cc3cccc(F)c3)CC2)c(O)c1-c1c(OC)cccc1OC [Example 90, 5-(2,6-dimethoxyphenyl)-6-(ethoxymethyl)-3-{4-[(3-fluorophenyl)methyl]piperazine-1-carbonyl}pyridine-2,4-diol] | 10 to 100
CCOCc1nc(O)c(C(=O)N2CCN(Cc3cccc(F)c3)CC2)c(O)c1-c1ccccc1OC [Example 91, 6-(ethoxymethyl)-3-{4-[(3-fluorophenyl)methyl]piperazine-1-carbonyl}-5-(2-methoxyphenyl)pyridine-2,4-diol] | 10 to 100
CCCCc1nc(O)c(C(=O)N(C)CCNC(=O)c2ccccc2)c(O)c1-c1c(OC)cccc1OC [Example 95, N-(2-{1-[6-butyl-5-(2,6-dimethoxyphenyl)-2,4-dihydroxypyridin-3-yl]-N-methylformamido}ethyl)benzamide] | 10 to 100
CCCCc1nc(O)c(C(=O)N(C)CCOc2ccccc2)c(O)c1-c1c(OC)cccc1OC [Example 99, 6-butyl-5-(2,6-dimethoxyphenyl)-2,4-dihydroxy-N-methyl-N-(2-phenoxyethyl)pyridine-3-carboxamide] | 10 to 100
CCCCc1nc(O)c(C(=O)N(C)CCNc2ncc(Cl)cc2F)c(O)c1-c1c(OC)cccc1OC [Example 102, 6-butyl-N-{2-[(5-chloro-3-fluoropyridin-2-yl)amino]ethyl}-5-(2,6-dimethoxyphenyl)-2,4-dihydroxy-N-methylpyridine-3-carboxamide] | 10 to 100
CCCCc1nc(O)c(C(=O)N2CCN(Cc3cccc(C(F)(F)F)c3)CC2)c(O)c1-c1c(OC)cccc1OC [Example 107, 6-butyl-5-(2,6-dimethoxyphenyl)-3-(4-{[3-(trifluoromethyl)phenyl]methyl}piperazine-1-carbonyl)pyridine-2,4-diol] | 100 to 300
CCCCc1nc(O)c(C(=O)N2CCN(CC3CCCCC3)CC2)c(O)c1-c1c(OC)cccc1OC [Example 109, 6-butyl-3-[4-(cyclohexylmethyl)piperazine-1-carbonyl]-5-(2,6-dimethoxyphenyl)pyridine-2,4-diol] | 10 to 100
CCCCc1nc(O)c(C(=O)N2CCN(CC3CC3)CC2)c(O)c1-c1c(OC)cccc1OC [Example 111] | 10 to 100
CCOCc1nc(O)c(C(=O)N2CCN(Cc3cccc(F)c3F)CC2)c(O)c1-c1c(OC)cccc1OC [Example 114, 3-{4-[(2,3-difluorophenyl)methyl]piperazine-1-carbonyl}-5-(2,6-dimethoxyphenyl)-6-(ethoxymethyl)pyridine-2,4-diol] | 0.01 to 10
CCCCc1nc(O)c(C(=O)N2CC(Oc3ncccc3F)C2)c(O)c1-c1c(OC)cccc1OC [Example 115, 6-butyl-5-(2,6-dimethoxyphenyl)-3-{3-[(3-fluoropyridin-2-yl)oxy]azetidine-1-carbonyl}pyridine-2,4-diol] | 0.01 to 10
CCCCc1nc(O)c(C(=O)N2CC(OCc3cccc(F)c3F)C2)c(O)c1-c1c(OC)cccc1OC [Example 116, 6-butyl-3-{3-[(2,3-difluorophenyl)methoxy]azetidine-1-carbonyl}-5-(2,6-dimethoxyphenyl)pyridine-2,4-diol] | 0.01 to 10
CCCCc1nc(O)c(C(=O)N(CCC)CCc2ccccc2F)c(O)c1-c1c(OC)cccc1OC [Example 117, 6-butyl-5-(2,6-dimethoxyphenyl)-N-[2-(2-fluorophenyl)ethyl]-2,4-dihydroxy-N-propylpyridine-3-carboxamide] | 100 to 300
CCCCc1nc(O)c(C(=O)N2CC(NS(=O)(=O)c3cccc(F)c3F)C2)c(O)c1-c1c(OC)cccc1OC [Example 118, N-{1-[6-butyl-5-(2,6-dimethoxyphenyl)-2,4-dihydroxypyridine-3-carbonyl]azetidin-3-yl}-2,3-difluorobenzene-1-sulfonamide] | 0.01 to 10
CCCCc1nc(O)c(C(=O)N2CCN(C(=O)c3cccc(F)c3F)CC2)c(O)c1-c1c(OC)cccc1OC [Example 119, 6-butyl-3-[4-(2,3-difluorobenzoyl)piperazine-1-carbonyl]-5-(2,6-dimethoxyphenyl)pyridine-2,4-diol] | 0.01 to 10
CCCCc1nc(O)c(C(=O)N2CCN(Cc3ncccc3F)CC2)c(O)c1-c1c(OC)cccc1OC [Example 120, 6-butyl-5-(2,6-dimethoxyphenyl)-3-{4-[(3-fluoropyridin-2-yl)methyl]piperazine-1-carbonyl}pyridine-2,4-diol] | 0.01 to 10
CCCCc1nc(O)c(C(=O)N2CCN(Cc3cccc(C)c3F)CC2)c(O)c1-c1c(OC)cccc1OC [Example 121, 6-butyl-5-(2,6-dimethoxyphenyl)-3-{4-[(2-fluoro-3-methylphenyl)methyl]piperazine-1-carbonyl}pyridine-2,4-diol] | 0.01 to 10

Continued, values first:

EC50 [nM] | Structure (SMILES)
0.01 to 10 | CCCCc1nc(O)c(C(=O)N2CCC(Oc3ccccc3)CC2)c(O)c1-c1c(OC)cccc1OC [Example 92, 6-butyl-5-(2,6-dimethoxyphenyl)-3-(4-phenoxypiperidine-1-carbonyl)pyridine-2,4-diol]
0.01 to 10 | CCCCc1nc(O)c(C(=O)N2CCN(Cc3ccc(Cl)cc3Cl)CC2)c(O)c1-c1c(OC)cccc1OC [Example 93, 6-butyl-3-{4-[(2,4-dichlorophenyl)methyl]piperazine-1-carbonyl}-5-(2,6-dimethoxyphenyl)pyridine-2,4-diol]
0.01 to 10 | CCCCc1nc(O)c(C(=O)N2CCN(Cc3cccc(Cl)c3Cl)CC2)c(O)c1-c1c(OC)cccc1OC [Example 94, 6-butyl-3-{4-[(2,3-dichlorophenyl)methyl]piperazine-1-carbonyl}-5-(2,6-dimethoxyphenyl)pyridine-2,4-diol]
0.01 to 10 | CCCCc1nc(O)c(C(=O)N2CC[C@@H](c3ccccc3)C2)c(O)c1-c1cc(OC)ccc1OC [Example 96, 6-butyl-5-(2,5-dimethoxyphenyl)-3-[(3S)-3-phenylpyrrolidine-1-carbonyl]pyridine-2,4-diol]
0.01 to 10 | CCCCc1nc(O)c(C(=O)N2CC[C@H](c3ccccc3)C2)c(O)c1-c1cc(OC)ccc1OC [Example 97, 6-butyl-5-(2,5-dimethoxyphenyl)-3-[(3R)-3-phenylpyrrolidine-1-carbonyl]pyridine-2,4-diol]
0.01 to 10 | CCCCc1nc(O)c(C(=O)N2CC(NC(=O)c3ccccc3)C2)c(O)c1-c1c(OC)cccc1OC [Example 98, N-{1-[6-butyl-5-(2,6-dimethoxyphenyl)-2,4-dihydroxypyridine-3-carbonyl]azetidin-3-yl}benzamide]
0.01 to 10 | CCCCc1nc(O)c(C(=O)N2CCC(Oc3ccc(Cl)cn3)CC2)c(O)c1-c1c(OC)cccc1OC [Example 100, 6-butyl-3-{4-[(5-chloropyridin-2-yl)oxy]piperidine-1-carbonyl}-5-(2,6-dimethoxyphenyl)pyridine-2,4-diol]
0.01 to 10 | CCCCc1nc(O)c(C(=O)N2CCN(Cc3ccccn3)CC2)c(O)c1-c1c(OC)cccc1OC [Example 101, 6-butyl-5-(2,6-dimethoxyphenyl)-3-[4-(pyridin-2-ylmethyl)piperazine-1-carbonyl]pyridine-2,4-diol]
0.01 to 10 | CCCCc1nc(O)c(C(=O)N2CCN(Cc3cccc(Cl)c3Cl)CC2)c(O)c1-c1cc(OC)ccc1OC [Example 103, 6-butyl-3-{4-[(2,3-dichlorophenyl)methyl]piperazine-1-carbonyl}-5-(2,5-dimethoxyphenyl)pyridine-2,4-diol]
0.01 to 10 | CCOCc1nc(O)c(C(=O)N2CCN(Cc3cccc(Cl)c3Cl)CC2)c(O)c1-c1c(OC)cccc1OC [Example 104, 3-{4-[(2,3-dichlorophenyl)methyl]piperazine-1-carbonyl}-5-(2,6-dimethoxyphenyl)-6-(ethoxymethyl)pyridine-2,4-diol]
0.01 to 10 | CCCCc1nc(O)c(C(=O)N2CCN(C(=O)c3ccc(Cl)cn3)CC2)c(O)c1-c1c(OC)cccc1OC [Example 105, 6-butyl-3-[4-(5-chloropyridine-2-carbonyl)piperazine-1-carbonyl]-5-(2,6-dimethoxyphenyl)pyridine-2,4-diol]
0.01 to 10 | CCCCc1nc(O)c(C(=O)N2CCC(Cc3ccccc3C)CC2)c(O)c1-c1c(OC)cccc1OC [Example 106, 6-butyl-5-(2,6-dimethoxyphenyl)-3-{4-[(2-methylphenyl)methyl]piperidine-1-carbonyl}pyridine-2,4-diol]
0.01 to 10 | CCCCc1nc(O)c(C(=O)N2CCN(Cc3cccc(F)c3F)CC2)c(O)c1-c1c(OC)cccc1OC [Example 108, 6-butyl-3-{4-[(2,3-difluorophenyl)methyl]piperazine-1-carbonyl}-5-(2,6-dimethoxyphenyl)pyridine-2,4-diol]
0.01 to 10 | CCCCc1nc(O)c(C(=O)N2CCN(Cc3cccc(F)c3F)CC2)c(O)c1-c1cc(OC)ccc1OC [Example 110, 6-butyl-3-{4-[(2,3-difluorophenyl)methyl]piperazine-1-carbonyl}-5-(2,5-dimethoxyphenyl)pyridine-2,4-diol]
0.01 to 10 | CCCCc1nc(O)c(C(=O)N2CCN(Cc3cccc(Cl)c3Cl)CC2)c(O)c1-c1cccc(OC)c1OC [Example 112, 6-butyl-3-{4-[(2,3-dichlorophenyl)methyl]piperazine-1-carbonyl}-5-(2,3-dimethoxyphenyl)pyridine-2,4-diol]
0.01 to 10 | CCCCc1nc(O)c(C(=O)N2CCC(Cc3cc(F)ccc3Br)CC2)c(O)c1-c1c(OC)cccc1OC [Example 113, 3-{4-[(2-bromo-5-fluorophenyl)methyl]piperidine-1-carbonyl}-6-butyl-5-(2,6-dimethoxyphenyl)pyridine-2,4-diol]
